Measurements taken from patent publication US10064888B2, “Pectin based nanoparticles” (TECHNION RESEARCH & DEVELOPMENT FOUNDATION LTD., priority 2013, dated 2018).

Assay: Residual curcumin during simulated shelf life, absorbance at 415 nm
Format: physicochemical
Conditions: over a period of 11 days, with respect to time 0
Description: FIG. 3. Is a graph depicting the SBP protective effect. Residual percentage of curcumin (with respect to time 0) during simulated shelf life, without and with protection by SBP. Curcumin was determined by absorbance at 415 nm (maximal absorbance of curcumin) as determined by a UV-Visible light spectrophotometer.

## COc1cc(/C=C/C(=O)CC(=O)/C=C/c2ccc(O)c(OC)c2)ccc1O [curcumin]
  decrease of curcumin during simulated shelf life: approximately 40%
